Test results reported in the NIST ThermoML archive (doi:10.1007/s10765-005-8592-5).
Where “and” joins values, the source holds several entries; their conditions need not be identical. Equal values may be shown once.

Key:
[1] = xn = mol fraction of the nth substance listed; details: Fluid (supercritical or subcritical phases), isochoric method
[2] = molar heat capacity at constant volume; xn = mol fraction of the nth substance listed; details: Fluid (supercritical or subcritical phases), Vacuum adiabatic calorimetry

CCC [propane] + CC(C)C
x1 = 1
Details	mass density, [1] [kg/m3]	molar heat capacity at constant volume, [2] [J/K/mol]
270.15 K, 4427 kPa	539.9	71.74
275.15 K, 7953 kPa	539.6	71.26
280.15 K, 11458 kPa	539.3	71.3
285.15 K, 14939 kPa	539	72.63
290.15 K, 18398 kPa	538.7	73.46
295.15 K, 21836 kPa	538.4	74.57
300.15 K, 25251 kPa	538.1	74.61
305.15 K, 28640 kPa	537.8	74.35
310.15 K, 6561 kPa	490.3	74.57
315.15 K, 9049 kPa	490.1	75.23
320.15 K, 11532 kPa	489.8	76.15
325.15 K, 3660 kPa	454.8	77.96
325.15 K, 14008 kPa	489.6	76.37
330.15 K, 5594 kPa	454.6	78.75
330.15 K, 16475 kPa	489.3	76.64
335.15 K, 7530 kPa	454.3	78.31
335.15 K, 18934 kPa	489.1	76.9
340.15 K, 9468 kPa	454.1	77.7
340.15 K, 21386 kPa	488.9	77.21
345.15 K, 11404 kPa	453.9	77.26
345.15 K, 23827 kPa	488.6	76.33
350.15 K, 13339 kPa	453.7	79.46
350.15 K, 26253 kPa	488.4	77.52
355.15 K, 15273 kPa	453.5	77.39
355.15 K, 28668 kPa	488.2	77.43
360.15 K, 17203 kPa	453.3	77.74
365.15 K, 19126 kPa	453.1	78.62
370.15 K, 21044 kPa	452.9	79.15
375.15 K, 5095 kPa	301.1	98.6
380.15 K, 5744 kPa	301	93.04
385.15 K, 6404 kPa	300.9	89.6
390.15 K, 7072 kPa	300.8	86.07
395.15 K, 7746 kPa	300.7	84.84
400.15 K, 8425 kPa	300.6	80.43
405.15 K, 9109 kPa	300.5	78.84
410.15 K, 9795 kPa	300.4	79.99
420.15 K, 11176 kPa	300.2	79.81
425.15 K, 11869 kPa	300.1	81.75

CC(C)C [2-methylpropane] + CCC
Details	mass density, [1] [kg/m3]	molar heat capacity at constant volume, [2]
270.15 K, 4579 kPa, x2 = 0.498	566.8	82.79 J/K/mol
275.15 K, 8198 kPa, x2 = 0.498	566.3	81.61 J/K/mol
280.15 K, 11759 kPa, x2 = 0.498	565.9	82.79 J/K/mol
285.15 K, 15256 kPa, x2 = 0.498	565.5	84.27 J/K/mol
290.15 K, 18687 kPa, x2 = 0.498	565.1	85.14 J/K/mol
295.15 K, 22038 kPa, x2 = 0.498	564.8	85.81 J/K/mol
300.15 K, 25302 kPa, x2 = 0.498	564.5	87.7 J/K/mol
305.15 K, 28471 kPa, x2 = 0.498	564.2	89.64 J/K/mol
315.15 K, 9748 kPa, x2 = 0.498	524.3	89.39 J/K/mol
320.15 K, 12415 kPa, x2 = 0.498	523.9	91.23 J/K/mol
325.15 K, 15069 kPa, x2 = 0.498	523.6	92.35 J/K/mol
330.15 K, 17709 kPa, x2 = 0.498	523.3	91.89 J/K/mol
335.15 K, 20336 kPa, x2 = 0.498	523	93.07 J/K/mol
340.15 K, 22950 kPa, x2 = 0.498	522.8	92.66 J/K/mol
345.15 K, 25550 kPa, x2 = 0.498	522.5	92.4 J/K/mol
350.15 K, 7962 kPa, x2 = 0.498	471.7	93.89 J/K/mol
350.15 K, 28136 kPa, x2 = 0.498	522.3	93.22 J/K/mol
355.15 K, 9814 kPa, x2 = 0.498	471.4	93.73 J/K/mol
360.15 K, 11663 kPa, x2 = 0.498	471.2	93.73 J/K/mol
365.15 K, 13509 kPa, x2 = 0.498	470.9	93.22 J/K/mol
370.15 K, 15351 kPa, x2 = 0.498	470.7	94.71 J/K/mol
375.15 K, 17187 kPa, x2 = 0.498	470.5	94.19 J/K/mol
380.15 K, 19017 kPa, x2 = 0.498	470.2	95.06 J/K/mol
380.15 K, 20994 kPa, x2 = 0.756	458.6	88.38 J/K/mol
385.15 K, 4713 kPa, x2 = 0.756	279.9	150.35 J/K/mol
385.15 K, 22824 kPa, x2 = 0.756	458.4	90.71 J/K/mol
390.15 K, 5229 kPa, x2 = 0.756	279.8	127.92 J/K/mol
390.15 K, 22647 kPa, x2 = 0.498	469.8	97.67 J/K/mol
395.15 K, 4489 kPa, x2 = 0.498	274.1	183.94 J/K/mol
395.15 K, 5756 kPa, x2 = 0.756	279.7	116.61 J/K/mol
400.15 K, 4949 kPa, x2 = 0.498	274	160.01 J/K/mol
400.15 K, 6290 kPa, x2 = 0.756	279.6	105.82 J/K/mol
405.15 K, 5419 kPa, x2 = 0.498	273.9	144.56 J/K/mol
405.15 K, 6830 kPa, x2 = 0.756	279.6	101.36 J/K/mol
410.15 K, 5896 kPa, x2 = 0.498	273.8	131.68 J/K/mol
410.15 K, 7375 kPa, x2 = 0.756	279.5	96.37 J/K/mol
415.15 K, 4254 kPa, x2 = 0	273.8	230.8 J/K/mol and 222.08 J/K/mol
415.15 K, 6379 kPa, x2 = 0.498	273.7	124.31 J/K/mol
415.15 K, 7922 kPa, x2 = 0.756	279.4	93.23 J/K/mol
420.15 K, 4664 kPa, x2 = 0	273.7	202.67 J/K/mol
420.15 K, 4665 kPa, x2 = 0	273.8	202.96 J/K/mol
420.15 K, 6865 kPa, x2 = 0.498	273.6	115.11 J/K/mol
420.15 K, 8472 kPa, x2 = 0.756	279.3	90.85 J/K/mol
425.15 K, 5082 kPa, x2 = 0	273.7	186.05 J/K/mol
425.15 K, 5083 kPa, x2 = 0	273.7	187.1 J/K/mol
425.15 K, 7354 kPa, x2 = 0.498	273.6	109.18 J/K/mol
